From US8822430B2 (Gilead Sciences, Inc., priority 2009, dated 2014)

Test system: HCV 1b RLuc cells (dicistronic genotype 1b Con1 replicon)
Experiment: Renilla luciferase (RLuc)-based HCV replicon reporter assay
Format: cell-based, HCV genotype 1b
Settings: Hepatitis C virus, 72 h, HCV 1b RLuc replicon, 72 hours; read-out: Activity (antiviral potency [EC50])
How it was run: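 HCV 1b RLuc cells carrying a dicistronic genotype 1b Con1 replicon were treated with serially diluted compounds from 10 mM DMSO stocks. After 72 h, cells were lysed and Renilla luciferase activity measured. EC50 was obtained by non-linear regression.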

## COC(=O)N[C@H](C(=O)N1CCC[C@H]1C(=O)Nc1nccc2cc(-c3ccc(-c4cnc([C@@H]5CCCN5C(=O)[C@@H](NC(=O)OC)C(C)C)[nH]4)cc3)ccc12)C(C)C
  EC50: 0.729 nM

## COC(=O)N[C@H](C(=O)N1CCC[C@H]1c1ncc(-c2ccc3c(c2)CN(C)Cc2cc(-c4cnc([C@@H]5CCCN5C(=O)[C@@H](NC(=O)OC)C(C)C)[nH]4)ccc2-3)[nH]1)C(C)C
  EC50: 11.1 nM

## COC(=O)N[C@H](C(=O)N1CCC[C@H]1c1ncc(-c2ccc(C#Cc3ccc4nc([C@@H]5CCCN5C(=O)[C@@H](NC(=O)OC)C(C)C)[nH]c4c3)cc2)[nH]1)C(C)C
  EC50: 0.0111 nM

## COC(=O)N[C@H](C(=O)N1CCC[C@H]1c1ncc(-c2ccc(-c3ccc(-c4cnc([C@@H]5CN(c6ccccc6)CN5C(=O)[C@@H](NC(=O)OC)C(C)C)[nH]4)cc3)cc2)[nH]1)C(C)C
  EC50: 0.0074 nM

## COC(=O)N[C@H](C(=O)N1CCC[C@H]1c1ncc(-c2ccc3cc(-c4ccc(-c5cnc([C@@H]6CCCN6C(=O)[C@H](NC(=O)OC)c6ccccc6)[nH]5)cc4)ccc3c2)[nH]1)C(C)C
  EC50: 0.0081 nM

## COC(=O)N[C@H](C(=O)N1CCC[C@H]1c1ncc(-c2ccc(-c3ccc4cc(-c5cnc([C@@H]6CCCN6C(=O)[C@@H](NC(=O)OC)C(C)C)[nH]5)ccc4c3)cc2)[nH]1)c1ccccc1
  EC50: 0.0272 nM

## COC(=O)NC(C(=O)N1CCC[C@H]1c1ncc(-c2ccc(-c3ccc4cc(-c5cnc([C@@H]6CCCN6C(=O)C(NC(=O)OC)c6ccccc6)[nH]5)ccc4c3)cc2)[nH]1)c1ccccc1 (stereo partly drawn)
  EC50: 0.0228 nM

## COC(=O)N[C@H](C(=O)N1CCC[C@H]1c1ncc(-c2cc3cc4sc(-c5cnc([C@@H]6CCCN6C(=O)[C@@H](NC(=O)OC)C(C)C)[nH]5)cc4cc3s2)[nH]1)C(C)C
  EC50: 0.0077 nM

## COC(=O)NC(C(=O)N1CCC[C@H]1c1ncc(-c2ccc(-c3ccc4cc(-c5cnc([C@@H]6CCCN6C(=O)[C@@H](NC(=O)OC)C(C)C)[nH]5)ccc4c3)cc2)[nH]1)=C1CCOCC1
  EC50: 0.0483 nM

## COC(=O)N[C@H](C(=O)N1CCC[C@H]1c1ncc(-c2ccc3cc(-c4ccc(-c5cnc([C@@H]6CCCN6C(=O)[C@@H](NC(=O)OC)C6Cc7ccccc7C6)[nH]5)cc4)ccc3c2)[nH]1)C(C)C
  EC50: 0.0104 nM

## COC(=O)N[C@H](C(=O)N1CCC[C@H]1c1ncc(-c2ccc(-c3ccc4cc(-c5cnc([C@@H]6CCCN6C(=O)[C@@H](NC(=O)OC)C6CCOCC6)[nH]5)ccc4c3)cc2)[nH]1)C1CCOCC1
  EC50: 0.0686 nM

## COC(=O)N[C@H](C(=O)N1CCC[C@H]1c1ncc(-c2cc3c(OC)c4sc(-c5cnc([C@@H]6CCCN6C(=O)[C@@H](NC(=O)OC)C(C)C)[nH]5)cc4c(OC)c3s2)[nH]1)C(C)C
  EC50: 0.0161 nM

## COC(=O)N[C@H](C(=O)N1CCC[C@H]1c1ncc(-c2ccc3c(c2)COc2c-3ccc3cc(-c4cnc([C@@H]5CCCN5C(=O)[C@@H](NC(=O)OC)C(C)C)[nH]4)ccc23)[nH]1)C(C)C
  EC50: 0.0044 nM

## COC(=O)N[C@H](C(=O)N1CCC[C@H]1c1ncc(C23CCC(c4ccc(-c5cnc([C@@H]6CCCN6C(=O)[C@H](NC(=O)OC)C(C)C)[nH]5)cc4)(CC2)CC3)[nH]1)C(C)C
  EC50: 39.7 nM

## COC(=O)N[C@H](C(=O)N1CCC[C@H]1c1ncc(C23CCC(c4cccc(-c5cnc([C@@H]6CCCN6C(=O)[C@H](NC(=O)OC)C(C)C)[nH]5)c4)(CC2)CC3)[nH]1)C(C)C
  EC50: ≥ 44.4 nM

## COC(=O)N[C@H](C(=O)N1CCC[C@H]1c1ncc(-c2ccc3cc(-c4ccc(-c5cnc([C@@H]6CCCN6C(=O)[C@H](NC(=O)OC)C6CCOCC6)[nH]5)cc4)ccc3c2)[nH]1)C(C)C
  EC50: 0.171 nM

## COC(=O)N[C@H](C(=O)N1CCC[C@H]1c1ncc(-c2cc3c(C)c4sc(-c5cnc([C@@H]6CCCN6C(=O)[C@@H](NC(=O)OC)C6CCOCC6)[nH]5)cc4c(C)c3s2)[nH]1)C1CCOCC1
  EC50: 0.106 nM

## COC(=O)N[C@H](C(=O)N1CCC[C@H]1c1ncc(-c2cc3c(OC)c4sc(-c5cnc([C@@H]6CCCN6C(=O)[C@@H](NC(=O)OC)C6CCOCC6)[nH]5)cc4c(OC)c3s2)[nH]1)C1CCOCC1
  EC50: 0.419 nM

## COC(=O)NC(C(=O)N1CCC[C@H]1c1ncc(-c2cc3c(C)c4sc(-c5cnc([C@@H]6CCCN6C(=O)C(NC(=O)OC)c6ccccc6)[nH]5)cc4c(C)c3s2)[nH]1)c1ccccc1 (stereo partly drawn)
  EC50: 0.0214 nM

## COC(=O)NC(C(=O)N1CCC[C@H]1c1ncc(-c2cc3c(OC)c4sc(-c5cnc([C@@H]6CCCN6C(=O)C(NC(=O)OC)c6ccccc6)[nH]5)cc4c(OC)c3s2)[nH]1)c1ccccc1 (stereo partly drawn)
  EC50: 0.0262 nM

## COC(=O)NC(C(=O)N1CCC[C@H]1c1ncc(-c2ccc(-c3ccc4cc(-c5cnc([C@@H]6CCCN6C(=O)[C@@H](NC(=O)OC)C(C)C)[nH]5)ccc4c3)cc2)[nH]1)C1CCS(=O)(=O)CC1 (stereo partly drawn)
  EC50: 0.135 nM

## COC(=O)N[C@H](C(=O)N1CCC[C@H]1c1ncc(-c2ccc3cc(-c4ccc(-c5cnc([C@@H]6CCCN6C(=O)[C@H](c6ccccc6)C(C)C)[nH]5)cc4)ccc3c2)[nH]1)C(C)C
  EC50: 0.0112 nM

## COC(=O)N[C@H](C(=O)N1CCC[C@H]1c1ncc(-c2ccc3cc(-c4ccc(-c5cnc([C@@H]6CCCN6C(=O)[C@H](NC(=O)OC)C6CCCCC6)[nH]5)cc4)ccc3c2)[nH]1)C(C)C
  EC50: 0.0972 nM

## COC(=O)NC(C(=O)N1CCC[C@H]1c1ncc(-c2cc3sc(-c4ccc(-c5cnc([C@@H]6CCCN6C(=O)[C@@H](NC(=O)OC)C(C)C)[nH]5)cc4)cc3s2)[nH]1)C(C)C (stereo partly drawn)
  EC50: 0.0129 nM

## COC(=O)NC(C(=O)N1CCS[C@H]1c1nc(-c2cc3c(OC)c4sc(-c5c[nH]c([C@@H]6SCCN6C(=O)C(NC(=O)OC)c6ccccc6)n5)cc4c(OC)c3s2)c[nH]1)c1ccccc1 (stereo partly drawn)
  EC50: 4.37 nM

## COC(=O)N[C@H](C(=O)N1CCC[C@H]1c1ncc(-c2ccc3cc(-c4ccc(-c5cnc([C@@H]6C[C@@H](c7ccccc7)CN6C(=O)[C@@H](NC(=O)OC)C(C)C)[nH]5)cc4)ccc3c2)[nH]1)C(C)C
  EC50: 0.0724 nM

## COC(=O)N[C@H](C(=O)N1CCC[C@H]1c1ncc(-c2ccc3cc(-c4ccc(-c5cnc([C@@H]6C[C@@H](Cc7ccccc7)CN6C(=O)[C@@H](NC(=O)OC)C(C)C)[nH]5)cc4)ccc3c2)[nH]1)C(C)C
  EC50: 0.014 nM

## COC(=O)N[C@@H](C)C(=O)N1[C@@H](c2ccccc2)CC[C@H]1c1ncc(-c2ccc(-c3ccc4cc(-c5cnc([C@@H]6CCCN6C(=O)[C@@H](NC(=O)OC)C(C)C)[nH]5)ccc4c3)cc2)[nH]1
  EC50: 0.788 nM

## COC(=O)NC(C(=O)N1CCC[C@H]1c1ncc(-c2ccc(-c3ccc4cc(-c5cnc([C@@H]6CCCN6C(=O)[C@@H](NC(=O)OC)C(C)C)[nH]5)ccc4c3)cc2)[nH]1)c1ccsc1 (stereo partly drawn)
  EC50: 0.0197 nM

## COC(=O)N[C@@H](Cc1ccccc1)C(=O)N1CCC[C@H]1c1ncc(-c2ccc(-c3ccc4cc(-c5cnc([C@@H]6CCCN6C(=O)[C@@H](NC(=O)OC)C(C)C)[nH]5)ccc4c3)cc2)[nH]1
  EC50: 0.0181 nM

## COC(=O)N[C@H](C(=O)N1CCC[C@H]1c1ncc(-c2ccc3cc(-c4ccc(-c5cnc([C@@H]6CCCN6C(=O)[C@@H](Cc6ccccc6)NC(=O)OC)[nH]5)cc4)ccc3c2)[nH]1)C(C)C
  EC50: 0.858 nM

## COC(=O)N[C@H](C(=O)N1CCC[C@H]1c1ncc(-c2ccc3cc(-c4ccc(-c5cnc([C@@H]6C[C@H](c7ccccc7)CN6C(=O)[C@@H](NC(=O)OC)C(C)C)[nH]5)cc4)ccc3c2)[nH]1)C(C)C
  EC50: 0.0189 nM

## COC(=O)NC(C(=O)N1CCC[C@H]1c1ncc(-c2cc3sc(-c4ccc5nc([C@@H]6CCCN6C(=O)[C@@H](NC(=O)OC)C(C)C)[nH]c5c4)cc3s2)[nH]1)C(C)C (stereo partly drawn)
  EC50: 0.0229 nM

## COC(=O)NC(C(=O)N1CCC[C@H]1c1ncc(-c2ccc3cc(-c4ccc(-c5cnc([C@@H]6C[C@H](OC(F)F)CN6C(=O)[C@@H](NC(=O)OC)C(C)C)[nH]5)cc4)ccc3c2)[nH]1)c1ccccc1 (stereo partly drawn)
  EC50: 0.0171 nM

## C=C1C[C@@H](c2ncc(-c3ccc(-c4ccc5cc(-c6cnc([C@@H]7CCCN7C(=O)[C@@H](NC(=O)OC)C(C)C)[nH]6)ccc5c4)cc3)[nH]2)N(C(=O)[C@@H](NC(=O)OC)C(C)C)C1
  EC50: 0.0113 nM

## COC(=O)N[C@H](C(=O)N1CCC[C@H]1c1ncc(-c2ccc3cc(-c4ccc(-c5cnc([C@@H]6CCCN6C(=O)[C@@H](Cc6cn(C)c7ccccc67)NC(=O)OC)[nH]5)cc4)ccc3c2)[nH]1)C(C)C
  EC50: 6.18 nM

## COC(=O)N[C@H](C(=O)N1CCC[C@H]1c1ncc(-c2ccc3cc(-c4ccc(-c5cnc([C@@H]6CCCN6C(=O)[C@H](NC(=O)OC)c6ccc(F)cc6)[nH]5)cc4)ccc3c2)[nH]1)C(C)C
  EC50: 0.0142 nM

## COC(=O)N[C@H](C(=O)N1CCC[C@H]1c1ncc(-c2ccc3cc(-c4ccc(-c5cnc([C@@H]6CCCN6C(=O)[C@H](O)c6ccccc6)[nH]5)cc4)ccc3c2)[nH]1)C(C)C
  EC50: 0.0097 nM

## COC(=O)N[C@H](C(=O)N1CCC[C@H]1c1ncc(-c2ccc3cc(-c4ccc(-c5cnc([C@@H]6CCCN6C(=O)[C@H](OC)c6ccccc6)[nH]5)cc4)ccc3c2)[nH]1)C(C)C
  EC50: 0.0163 nM

## COC(=O)N[C@H](C(=O)N1CCC[C@H]1c1ncc(-c2ccc3c(c2)COc2c-3ccc3cc(-c4cnc([C@@H]5CCCN5C(=O)[C@@H](NC(=O)OC)C5CCOCC5)[nH]4)ccc23)[nH]1)C1CCOCC1
  EC50: 0.0417 nM

## COC(=O)N[C@H](C(=O)N1CCC[C@H]1c1ncc(-c2ccc(-c3ccc4cc(-c5cnc([C@@H]6CCCN6C(=O)[C@@H](NC(=O)OC)C(C)C)[nH]5)ccc4c3)cc2)[nH]1)c1ccsc1
  EC50: 0.0906 nM

## COC(=O)N[C@H](C(=O)N1CCC[C@H]1c1ncc(-c2ccc3cc(-c4ccc(-c5cnc([C@@H]6CCCN6C(=O)[C@H](NC(=O)OC)c6ccsc6)[nH]5)cc4)ccc3c2)[nH]1)C(C)C
  EC50: 0.0157 nM

## COC(=O)NC(C(=O)N1CCC[C@H]1c1ncc(-c2cc3sc(C#Cc4cnc([C@@H]5CCCN5C(=O)[C@@H](NC(=O)OC)C(C)C)[nH]4)cc3s2)[nH]1)C(C)C (stereo partly drawn)
  EC50: 0.0503 nM

## COC(=O)N[C@H](C(=O)N1CCC[C@H]1c1ncc(-c2ccc3cc(-c4ccc5[nH]c([C@@H]6CCN6C(=O)[C@@H](NC(=O)OC)C(C)C)nc5c4)ccc3c2)[nH]1)C(C)C
  EC50: 0.026 nM

## COC(=O)N[C@H](C(=O)N1CCC[C@H]1c1ncc(-c2ccc(-c3ccc(-c4ccc5nc([C@@H]6CCN6C(=O)[C@@H](NC(=O)OC)C(C)C)[nH]c5c4)cc3)cc2)[nH]1)C(C)C
  EC50: 0.0282 nM
